Holding throughout (format): cell-based
Common to all, as to design: key: −: lack of caspase 3/7 activation after 24 hours of compound treatment; ++: moderate; +++: strong; ++++: very strong

The subject of one experiment is H1792 NSCLC cells. In words: Caspase 3/7 activation, H1792. The conditions noted are these: H1792, KRAS^G12c; BRG1 WT, LKB1 WT, CDKN2A WT; 24 hours.
Another experiment relates to H2291 NSCLC cells. In words: Caspase 3/7 activation, H2291. The conditions noted are these: H2291, KRAS^G12F; BRG1 WT, LKB1 WT, CDKN2A WT; 24 hours.
For another experiment, the system named is H2347 NSCLC cells. In words: Caspase 3/7 activation, H2347. The conditions noted are these: H2347, KRAS^Q61K; BRG1 WT, LKB1 WT, CDKN2A WT; 24 hours.
In a further experiment the test system is H2122 NSCLC cells. In words: Caspase 3/7 activation, H2122. The conditions noted are these: H2122, KRAS^G12c; BRG1 WT, LKB1 MUT, CDKN2A MUT; 24 hours.
For the next experiment, the system named is H358 NSCLC cells. The experiment can be described thus: Caspase 3/7 activation, H358. The following applies: H358, KRAS^G12c; BRG1 WT, LKB1 WT, CDKN2A WT; 24 hours.
The next experiment relates to H1573 NSCLC cells. In words: Caspase 3/7 activation, H1573. The following applies: H1573, KRAS^G12A; BRG1 MUT, LKB1 WT, CDKN2A WT; 24 hours.
In another experiment the test system is HOP62 NSCLC cells. The experiment can be described thus: Caspase 3/7 activation, HOP62. The conditions noted are these: HOP62, KRAS^G12c; BRG1 WT, LKB1 WT, CDKN2A MUT; 24 hours.
Another experiment deals with H23 NSCLC cells. The experiment can be described thus: Caspase 3/7 activation, H23. The conditions noted are these: H23, KRAS^G12c; BRG1 MUT, LKB1 MUT, CDKN2A WT; 24 hours.
The subject of a further experiment is A427 NSCLC cells. The experiment can be described thus: Caspase 3/7 activation, A427. The following applies: A427, KRAS^G12D; BRG1 MUT, LKB1 MUT, CDKN2A WT; 24 hours.
A further experiment concerns H2030 NSCLC cells. In words: Caspase 3/7 activation, H2030. The conditions noted are these: H2030, KRAS^G12c; BRG1 MUT, LKB1 MUT, CDKN2A WT; 24 hours.
The subject of the next experiment is H1299 NSCLC cells. The experiment can be described thus: Caspase 3/7 activation, H1299. The conditions noted are these: H1299, KRAS^Q61H; BRG1 MUT, LKB1 WT, CDKN2A WT; 24 hours.
The subject of another experiment is Calu1 NSCLC cells. The experiment can be described thus: Caspase 3/7 activation, Calu1. The following applies: Calu1, KRAS^G12c; BRG1 WT, LKB1 WT, CDKN2A WT; 24 hours.
The subject of another experiment is H1155 NSCLC cells. In words: Caspase 3/7 activation, H1155. The following applies: H1155, KRAS^Q61H; BRG1 WT, LKB1 WT, CDKN2A WT; 24 hours.
The next experiment concerns H1355 NSCLC cells. In words: Caspase 3/7 activation, H1355. The conditions noted are these: H1355, KRAS^G13C; BRG1 NULL, LKB1 MUT, CDKN2A WT; 24 hours.
The next experiment has as its system SW1573 NSCLC cells. In words: Caspase 3/7 activation, SW1573. The following applies: SW1573, KRAS^G12C; BRG1 WT, LKB1 WT, CDKN2A MUT; 24 hours.
The test system of the next experiment is COR-L23 NSCLC cells. In words: Caspase 3/7 activation, COR-L23. The following applies: COR-L23, KRAS^G12V; BRG1 WT, LKB1 WT, CDKN2A WT; 24 hours.
Another experiment deals with SW900 NSCLC cells. The experiment can be described thus: Caspase 3/7 activation, SW900. The conditions noted are these: SW900, KRAS^G12V; BRG1 WT, LKB1 WT, CDKN2A MUT; 24 hours.
Another experiment concerns H2009 NSCLC cells. The experiment can be described thus: Caspase 3/7 activation, H2009. The conditions noted are these: H2009, KRAS^G12A; BRG1 WT, LKB1 WT, CDKN2A WT; 24 hours.

Consider 2 molecules from patent publication US20130231346A1, “METHODS OF TREATING CANCER” (GLAXOSMITHKLINE INTELLECTUAL PROPERTY (NO.2) LIMITED, priority 2010, published 2013).

Molecules are shown by their SMILES.

Method for A427 NSCLC cells: (§1) Inhibition of cell growth and induction of apoptosis were determined by CellTiter-Glo® and caspase 3/7 activation assays after 72 and 24 hours of treatment, respectively.
Method for COR-L23 NSCLC cells: (§2) A panel of 24 non-small cell lung carcinoma (NSCLC) cell lines harboring RAS mutations was analyzed for genomic alterations, gene expression profiling and protein phosphorylation in MAPK and PI3K pathways. Inhibition of cell growth and induction of apoptosis were determined by CellTiter-Glo® and caspase 3/7 activation assays after 72 and 24 hours of treatment, respectively.
Method for Calu1 NSCLC cells: as §2
Method for H1155 NSCLC cells: as §2
Method for H1299 NSCLC cells: as §1
Method for H1355 NSCLC cells: as §2
Method for H1573 NSCLC cells: as §2
Method for H1792 NSCLC cells: as §1
Method for H2009 NSCLC cells: as §1
Method for H2030 NSCLC cells: as §1
Method for H2122 NSCLC cells: as §1
Method for H2291 NSCLC cells: as §1
Method for H23 NSCLC cells: as §1
Method for H2347 NSCLC cells: as §1
Method for H358 NSCLC cells: as §1
Method for HOP62 NSCLC cells: as §2
Method for SW1573 NSCLC cells: as §2
Method for SW900 NSCLC cells: as §1

As to `CC(=O)Nc1cccc(-n2c(=O)n(C3CC3)c(=O)c3c(Nc4ccc(I)cc4F)n(C)c(=O)c(C)c32)c1` [Compound A, N-{3-[3-cyclopropyl-5-(2-fluoro-4-iodo-phenylamino)-6,8-dimethyl-2,4,7-trioxo-3,4,6,7-tetrahydro-2H-pyrido[4,3-d]pyrimidin-1-yl]phenyl}acetamide], the “Apoptosis Response (caspase 3/7 activation)” value (shortened to “Apoptosis Response”) in the experiment on H1792 NSCLC cells was “++”; in the experiment with H2291 NSCLC cells it was “++”; in the experiment with H2347 NSCLC cells it was “++”; in the experiment with H2122 NSCLC cells, “++”; in the experiment on H358 NSCLC cells, “−”; in the experiment on H1573 NSCLC cells, “−”. The “Apoptosis Response” value with HOP62 NSCLC cells, with H23 NSCLC cells, with A427 NSCLC cells, with H2030 NSCLC cells, in the experiment on H1299 NSCLC cells and with Calu1 NSCLC cells was “−” in each case. In addition, the “Apoptosis Response” value in the experiment on H1155 NSCLC cells, with H1355 NSCLC cells, in the experiment on SW1573 NSCLC cells, in the experiment with COR-L23 NSCLC cells, with SW900 NSCLC cells and with H2009 NSCLC cells was “−” in each case.

For `CC(=O)O[C@@]12CO[C@@H]1C[C@H](O)[C@@]1(C)C(=O)[C@H](O)C3=C(C)[C@@H](OC(=O)[C@H](O)[C@@H](NC(=O)OC(C)(C)C)c4ccccc4)C[C@@](O)([C@@H](OC(=O)c4ccccc4)[C@H]21)C3(C)C` [Docataxel, (2R,3S)—N-carboxy-3-phenylisoserine,N-tert-butyl ester, 13-ester with 5β-20-epoxy-1,2α,4,7β,10β,13α-hexahydroxytax-11-en-9-one 4-acetate 2-benzoate, trihydrate], the “Apoptosis Response” value is given as “+++” in the experiment with H1792 NSCLC cells; “−” with H2291 NSCLC cells; “−” in the experiment on H2347 NSCLC cells; “−” with H2122 NSCLC cells; “++” in the experiment on H358 NSCLC cells; “++” with H1573 NSCLC cells. Further, the “Apoptosis Response” value in the experiment on HOP62 NSCLC cells is reported as “++”; in the experiment on H23 NSCLC cells it was “+++”; in the experiment on A427 NSCLC cells it was “++”; in the experiment on H2030 NSCLC cells, “++”; in the experiment on H1299 NSCLC cells, “−”; with Calu1 NSCLC cells, “−”. For the same molecule, the “Apoptosis Response” value in the experiment with H1155 NSCLC cells, in the experiment with H1355 NSCLC cells, in the experiment with SW1573 NSCLC cells, in the experiment on COR-L23 NSCLC cells, in the experiment on SW900 NSCLC cells and in the experiment with H2009 NSCLC cells was “−” in each case.
